Reference: PMC4769596 (Biochemical pharmacology, 2014)
pEC50: −log10 of the molar value. Like-named read-outs stand apart in the source and are kept apart here.

What was measured:
[1] = tested on: spinal cord membranes from μOR−/− mice; assay: [35S]GTPγS binding, spinal cord membranes from μOR−/− mice; assay type: biochemical
[2] = biological target: μOR (spinal cord membranes from WT mice) (Mus musculus, UniProt P42866); assay: [35S]GTPγS binding, spinal cord membranes from WT mice; assay type: biochemical; details: spinal cord membranes (10 μg); for Emax (% basal), [35S]GTPγS binding: basal = 100%
[3] = biological target: μOR (spinal cord membranes from δOR−/− mice) (Mus musculus, UniProt P42866); assay: [35S]GTPγS binding, spinal cord membranes from δOR−/− mice; assay type: biochemical; details: spinal cord membranes (10 μg), basal = 100%
antinociception = details: cited from earlier work
[4] = biological target: μOR-δOR heteromers (μ^βgalOR-δOR cells) (Homo sapiens, UniProt P35372+P41143)
[5] = biological target: μOR homomers (μ^βgalOR cells) (Homo sapiens, UniProt P35372); assay type: cell-based
[6] = tested on: novel-environment stressed mice; details: doses of 5–25 mg/kg; cited from earlier work
[7] = tested on: castor oil-induced diarrhea in WT mice; assay type: in vivo; details: for effect on body weight change in presence of naltrexone: WT and δOR−/− mice; for reduction in castor oil-induced diarrhea after naltrexone pre-treatment: 10 mg/kg p.o., naltrexone 10 mg/kg i.p. 20 min before; for castor oil-induced diarrhea (diarrhea score): 5 or 10 mg/kg p.o. 15 min before castor oil; for castor oil-induced diarrhea (diarrhea score) / castor oil induced fecal output (fecal weight): 4 h; for castor oil induced fecal output (fecal weight) / castor oil-induced decrease in body weight: 5 or 10 mg/kg p.o.
[8] = biological target: μOR (membranes from the ileum of WT mice) (Mus musculus, UniProt P42866); assay: [35S]GTPγS binding, ileal membranes from WT mice; assay type: biochemical; details: 10 μM (Fig. 1G)
[9] = tested on: castor oil-induced diarrhea in δOR−/− mice; assay: Castor oil-induced diarrhea in δOR−/− mice; assay type: in vivo; details: for castor oil induced fecal output (fecal weight): 4 h; for castor oil-induced decrease in body weight: 5 or 10 mg/kg p.o., 4 h after castor oil
[10] = Chronic treatment, body weight; details: 10 mg/kg/day p.o. for 5 days

Sequence of μOR (spinal cord membranes from WT mice) (P42866 whole entry): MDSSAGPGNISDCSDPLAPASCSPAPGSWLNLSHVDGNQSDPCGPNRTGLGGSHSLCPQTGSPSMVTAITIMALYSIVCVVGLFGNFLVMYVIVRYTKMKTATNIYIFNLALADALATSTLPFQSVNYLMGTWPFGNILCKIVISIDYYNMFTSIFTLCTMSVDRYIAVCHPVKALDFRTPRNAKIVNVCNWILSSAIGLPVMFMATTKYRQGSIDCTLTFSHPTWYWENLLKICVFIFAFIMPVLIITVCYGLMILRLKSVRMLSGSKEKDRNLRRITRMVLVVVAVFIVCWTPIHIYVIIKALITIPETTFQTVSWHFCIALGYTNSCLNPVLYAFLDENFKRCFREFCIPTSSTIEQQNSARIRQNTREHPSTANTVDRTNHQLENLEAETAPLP
Sequence of μOR (spinal cord membranes from δOR−/− mice) (P42866 whole entry): as above
Sequence of μOR-δOR heteromers (μ^βgalOR-δOR cells) (P35372 whole entry): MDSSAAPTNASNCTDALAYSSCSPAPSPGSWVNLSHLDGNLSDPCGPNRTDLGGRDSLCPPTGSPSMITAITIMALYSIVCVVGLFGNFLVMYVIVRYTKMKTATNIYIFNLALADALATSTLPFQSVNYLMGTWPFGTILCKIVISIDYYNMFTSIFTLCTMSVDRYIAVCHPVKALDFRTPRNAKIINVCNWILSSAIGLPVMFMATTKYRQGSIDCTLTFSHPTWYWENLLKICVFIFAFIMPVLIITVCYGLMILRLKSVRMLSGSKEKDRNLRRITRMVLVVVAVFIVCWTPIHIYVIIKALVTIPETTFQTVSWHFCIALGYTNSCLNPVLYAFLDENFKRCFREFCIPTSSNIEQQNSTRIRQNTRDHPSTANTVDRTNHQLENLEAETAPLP
Sequence of μOR-δOR heteromers (μ^βgalOR-δOR cells) (P41143 whole entry): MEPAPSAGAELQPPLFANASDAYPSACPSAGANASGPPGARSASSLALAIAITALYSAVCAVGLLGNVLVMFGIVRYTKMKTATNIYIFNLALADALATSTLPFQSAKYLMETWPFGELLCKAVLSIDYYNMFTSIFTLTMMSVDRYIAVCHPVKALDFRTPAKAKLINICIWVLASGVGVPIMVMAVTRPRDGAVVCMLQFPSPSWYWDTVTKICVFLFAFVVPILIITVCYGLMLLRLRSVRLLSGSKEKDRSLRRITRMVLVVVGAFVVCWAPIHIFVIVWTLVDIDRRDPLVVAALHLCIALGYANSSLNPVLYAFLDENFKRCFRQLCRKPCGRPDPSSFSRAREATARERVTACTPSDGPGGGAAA
Sequence of μOR (membranes from the ileum of WT mice) (P42866 whole entry): as the sequence (P42866 whole entry) above
Sequence of μOR homomers (μ^βgalOR cells) (P35372 whole entry): as the sequence (P35372 whole entry) above

Row | SMILES | increase of [35S]GTPγS binding [1] | Emax (% basal), [35S]GTPγS binding [2] | Emax (% basal), [35S]GTPγS binding [3] | effect on body weight change in presence of naltrexone ([7]; naltrexone 10 mg/kg i.p.) | reduction in castor oil-induced diarrhea after naltrexone pre-treatment ([7]; WT mice) | castor oil-induced diarrhea (diarrhea score) ([7]; WT mice) | castor oil induced fecal output (fecal weight) ([7]; WT mice) | castor oil-induced decrease in body weight ([7]; WT mice, 4 h after castor oil) | castor oil-induced diarrhea (diarrhea score) ([9]; 5 mg/kg p.o.) | castor oil induced fecal output (fecal weight) ([9]; 5 mg/kg p.o.) | castor oil-induced diarrhea (diarrhea score) ([9]; 10 mg/kg p.o.) | castor oil-induced decrease in body weight [9] | changes in body weight [10] | also measured
1 | C[C@@H](NC(=O)[C@@H](N)Cc1ccc(O)cc1)C(=O)NCC(=O)N(C)[C@@H](Cc1ccccc1)C(=O)NCCO [DAMGO, [D-Ala^2, N-MePhe^4, Gly-ol]-enkephalin] | did not increase | ~ 143 % basal | ~ 147 % basal | – | – | – | – | – | – | – | – | – | – | –
2 | CN1CC[C@]23c4c5ccc(O)c4O[C@H]2[C@H](NC(=O)COCC(=O)NCCCCCCCNC(=O)COCC(=O)Nc2cccc4c6c([nH]c24)[C@@H]2Oc4c(O)ccc7c4[C@@]24CCN(CC2CC2)[C@@H](C7)[C@]4(O)C6)CC[C@@]3(O)[C@H]1C5 [MDAN21] | – | – | – | – | – | – | – | – | – | – | – | – | – | antinociceptive potency compared to morphine (antinociception): 100 times
3 | COc1ccc(CN(C(=O)[C@@H](N)Cc2c(C)cc(C(N)=O)cc2C)[C@@H](C)c2ncc(-c3ccccc3)[nH]2)cc1C(=O)O [eluxadoline] | did not increase | ~ 120 % basal | ~ 143 % basal | partly blocked | not observed | reduced | significantly reduces | blocked | did not significantly reduce | significantly decreased | partially eliminate | blocked | did not lead to significant changes | block of β-arrestin recruitment by μOR-selective antibodies [4]: ~ 17%; block of β-arrestin recruitment by μOR-δOR heteromer-selective antibodies [4]: 27%; block of β-arrestin recruitment by μOR-selective antibodies [5]: ~ 40%; pEC50 ([2]; EC50, [35S]GTPγS binding): ~8.15; constipation [6]: did not cause constipation; fecal output versus vehicle control (constipation) ([7]; WT mice, 5 mg/kg, 4 h after castor oil): slightly reduced fecal output to below the vehicle control; effect on fecal output with coadministration of naltrexone ([7]; WT mice, naltrexone 10 mg/kg i.p.): blocked; increase in [35S]GTPγS binding compared to DAMGO or loperamide [8]: higher increase; effect on castor oil-induced body weight change compared to WT mice ([9]; 5 mg/kg): less effective
4 | CN(C)C(=O)C(CCN1CCC(O)(c2ccc(Cl)cc2)CC1)(c1ccccc1)c1ccccc1 [loperamide] | did not increase | – | – | partly blocked | not observed | reduced | significantly reduces | blocked | did not significantly reduce | significantly decreased | completely eliminate | blocked | did not lead to significant changes | effect on fecal output with coadministration of naltrexone ([7]; mouse, in vivo): blocked
